Earlier results in US20230330115A1 (priority 2022, published 2023).
“Also recorded” adds a separate entry of the source.

How the values were obtained:
CB2 [1] = molecular target: T1, CB2 (Homo sapiens, UniProt P34972); settings: read-out: Binding Affinity CB2
CB1 receptor = settings: read-out: Binding Affinity CB1
CB1 = CB1 (Homo sapiens, UniProt P21554); settings: read-out: Functional Activity CB1
CB2 [2] = molecular target: T1, CB2; settings: read-out: Functional Activity CB2
rodents = rodents administered THCB

CB1, sequence (P21554 whole entry): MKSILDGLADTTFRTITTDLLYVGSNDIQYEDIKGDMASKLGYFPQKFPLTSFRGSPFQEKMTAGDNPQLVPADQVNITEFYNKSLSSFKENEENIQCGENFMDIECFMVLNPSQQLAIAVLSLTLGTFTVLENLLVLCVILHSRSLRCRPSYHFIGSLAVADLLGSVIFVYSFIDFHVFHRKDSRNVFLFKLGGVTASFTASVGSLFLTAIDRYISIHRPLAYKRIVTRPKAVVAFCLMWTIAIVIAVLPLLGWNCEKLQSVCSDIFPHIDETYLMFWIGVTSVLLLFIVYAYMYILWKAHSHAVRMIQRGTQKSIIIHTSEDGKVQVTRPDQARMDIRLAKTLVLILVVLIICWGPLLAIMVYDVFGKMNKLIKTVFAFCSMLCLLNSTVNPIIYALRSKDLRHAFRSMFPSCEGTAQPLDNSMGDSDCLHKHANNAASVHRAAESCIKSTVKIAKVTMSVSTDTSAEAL
T1 sequence (P34972 whole entry): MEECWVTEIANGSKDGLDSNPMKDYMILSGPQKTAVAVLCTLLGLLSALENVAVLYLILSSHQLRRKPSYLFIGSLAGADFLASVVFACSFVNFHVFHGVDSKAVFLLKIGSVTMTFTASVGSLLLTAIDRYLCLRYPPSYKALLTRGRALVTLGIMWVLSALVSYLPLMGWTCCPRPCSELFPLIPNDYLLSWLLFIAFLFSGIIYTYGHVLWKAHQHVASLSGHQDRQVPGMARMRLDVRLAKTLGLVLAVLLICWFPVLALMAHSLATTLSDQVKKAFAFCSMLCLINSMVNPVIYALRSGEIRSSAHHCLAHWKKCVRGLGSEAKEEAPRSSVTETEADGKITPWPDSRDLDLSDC

Compound: CCCCCc1cc2c(c(O)c1C(=O)O)[C@@H]1C=C(C)CC[C@H]1C(C)(C)O2 (relative stereo) [THCA, (—)trans-delta-9-tetrahydrocannabinolic acid]
- Ki (CB2 [1]): 1650 nM
- Ki (CB1 receptor): 1290 nM
- EC50 (CB1): > 10000 nM
- EC50 (CB2 [2]): > 10000 nM

Compound: CCCCc1cc(O)c2c(c1)OC(C)(C)[C@@H]1CCC(C)=C[C@@H]21 (relative stereo) [THCB, (—)trans-delta-9-tetrahydrocannabibutol]
- Ki (CB1 receptor): 15 nM
- catalepsy, analgesia, hypolocomotion (mice; first phase (10 mg/kg)): no significant catalepsy, analgesia, or hypolocomotion; also recorded: no significant catalepsy, analgesia, or hypo locomotion
- hypothermic effect (decrease) (mice; first phase (10 mg/kg)): less than 0.5 °C
- activity type corroborated by Tetrad Test (mice; mice): CB1 partial agonistic activity
- catalepsy and analgesia (mice; second phase (20 mg/kg)): significant direct effect on catalepsy and analgesia; also recorded: very significant catalepsy and analgesia effect
- hypolocomotion (mice; second phase (20 mg/kg)): slight direct effect on hypolocomotion
- hypothermic effect (mice; second phase (20 mg/kg)): appears to reverse; also recorded: reversal in the second phase
- formalin test outcome (rodents): possible analgesic and anti-inflammatory properties

Compound: CCCCCCCc1cc(O)c2c(c1)OC(C)(C)[C@@H]1CCC(C)=C[C@@H]21 (relative stereo) [THCP, (—)trans-delta-9-tetrahydrocannabiphorol]
- Ki (CB1 receptor): 1.2 nM
- hypothermia, dose dependence (mice; 5 mg/Kg vs 10 mg/Kg): does appear to increase at higher doses
- potency at CB1 relative to THC (mice; Tetrad Test in mice, even at low doses (5 mg/kg of body weight)): about 30 times
- effects in mice (Tetrad Test criteria) (mice; mice): hypomotility, analgesia, catalepsy and decreased rectal temperature
- dose dependence of the effects (mice; mice, increasing dose (5 mg/Kg vs 10 mg/Kg)): do not appear to increase as the dose increases

Compound: CCCc1cc(O)c2c(c1)OC(C)(C)[C@@H]1CCC(C)=C[C@@H]21 (single isomer, unassigned) [THCV, (—)trans-delta-9-tetrahydrocannabivarin]
- Ki (CB2 [1]): 105 ± 21 nM
- Ki (CB1 receptor): 22 ± 5 nM
- EC50 (CB1): > 10000 nM
- EC50 (CB2 [2]): > 10000 nM

Compound: CCCCCc1cc(O)c2c(c1)OC(C)(C)[C@@H]1CCC(CO)=C[C@@H]21 [11-Hydroxy, 11-OH-delta-9-tetrahydrocannabinol]
- Ki (CB1 receptor): < 200 nM
- EC50 (CB1): < 200 nM

Compound: C=C(C)[C@@H]1CCC(C)=C[C@H]1c1c(O)cc(CCC)cc1O [CBDV, Cannabidivarin]
- Ki (CB2 [1]): 3970 nM
- Ki (CB1 receptor): 503 ± 58 nM
- EC50 (CB1): > 10000 nM
- EC50 (CB2 [2]): 3 ± 8 nM

Compound: CCCCCc1cc(O)c(C/C=C(\C)CCC=C(C)C)c(O)c1 [CBG, Cannabigerol]
- Ki (CB1 receptor): 440 nM
- EC50 (CB1): > 10000 nM
- EC50 (CB2 [2]): 1160 nM

Compound: CCCCCc1cc(O)c(C/C=C(\C)CCC=C(C)C)c(O)c1C(=O)O [CBGA, Cannabigerolic acid]
- Ki (CB2 [1]): > 10000 nM
- Ki (CB1 receptor): 4530 nM
- EC50 (CB1): 182 ± 32 nM
- EC50 (CB2 [2]): 118 ± 27 nM

Compound: CCCCCc1cc(O)c2c(c1)OC(C)(C)c1ccc(C)cc1-2 [CBN, Cannabinol]
- Ki (CB2 [1]): 168 ± 32 nM
- Ki (CB1 receptor): 368 ± 121 nM
- EC50 (CB1): 307 ± 39 nM
- EC50 (CB2 [2]): 289 ± 38 nM

Compound: Cannabichromanone D [CBCN D]
- Ki (CB2 [1]): 2830 nM
- Ki (CB1 receptor): 7120 nM
- EC50 (CB1): 8 ± 0.9 nM
- EC50 (CB2 [2]): 3940 nM
